# Test results taken from ChEMBL document CHEMBL1201862, “PubChem BioAssay data set” (2004).
# Calls of active or inactive are those of the source.
# Assays:
# [1] = viability inhibitors of stage V gametocytes – luminescence, dose response (AID 1117278); assay type: functional, cell-based;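 further: gametocytes exposed to compound for 24 hours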
# [2] = viability loss in human Jurkat cells – cell-based, luminescence, cytotoxicity control for P. falciparum gametocyte viability project, dose response (AID 1117277); assay type: functional;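 further: potency reflects loss of cellular ATP meaning fewer viable cells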
# Prothrombin = Prothrombin (Homo sapiens, UniProt P00734); assay: Thrombin 1536 HTS Dose Response Confirmation. [Related pubchem assays: 1046 (Thrombin 1536 HTS; hits were confirmed in this assay)]; assay type: functional
# [3] = loss of viability in HepG2 cells – cell-based, CellTiter-Glo, cherry-picked, cytotoxicity control for Shn3 inhibitor project, dose response (AID 624134); assay type: functional
# [4] = Luminescence Cell-Based Dose Retest to Confirm Inhibitors of Cancer Stem Cells. [Related pubchem assays (depositor defined):AID2717, AID2721]; assay type: functional; conditions: Homo sapiens
# [5] = toxicity toward HepG2 liver cells – cell-based, plate reader, cherry-pick, antagonist series, cytotoxicity control, dose response (AID 743416); assay type: functional
# [6] = target: T1, Microphthalmia-associated transcription factor (Homo sapiens, UniProt O75030); assay: reducers of TRPM1 reporter luminescence, concentration series – cell-based, SK-MEL-5, cherry-picked, set 3, MITF inhibitor project, dose response (AID 493073); assay type: functional;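 further: SK-MEL-5 melanoma cells with luciferase driven by the MITF target TRPM1 promoter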
# T1 sequence (O75030 whole entry): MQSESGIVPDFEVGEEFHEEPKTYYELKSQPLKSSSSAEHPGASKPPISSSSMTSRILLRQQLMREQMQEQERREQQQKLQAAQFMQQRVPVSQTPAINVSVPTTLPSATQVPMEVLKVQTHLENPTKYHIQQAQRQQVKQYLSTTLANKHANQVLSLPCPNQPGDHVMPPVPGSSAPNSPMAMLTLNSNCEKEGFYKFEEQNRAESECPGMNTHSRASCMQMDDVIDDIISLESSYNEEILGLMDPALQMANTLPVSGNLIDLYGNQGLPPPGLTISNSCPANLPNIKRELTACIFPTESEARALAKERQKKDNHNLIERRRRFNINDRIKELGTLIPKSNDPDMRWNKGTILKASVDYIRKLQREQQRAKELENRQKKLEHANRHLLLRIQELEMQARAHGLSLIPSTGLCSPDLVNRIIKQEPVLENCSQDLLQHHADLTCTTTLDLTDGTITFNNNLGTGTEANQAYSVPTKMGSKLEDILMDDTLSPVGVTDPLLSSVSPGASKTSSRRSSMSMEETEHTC
# A-375 = assay: proliferation inhibition in MITF-low A375 cells – cell-based, cherry-pick samples, set 2, counter-screen for MITF modulator project, dose response (AID 540335); assay type: functional; conditions: Homo sapiens
# [7] = A549 cell cytotoxicity, dose response, cytotoxicity control, plate reader, cherry-pick, antagonist series (AID 743412); assay type: functional, cell-based
# [8] = reduction of Shn3 3'UTR-driven luciferase in osteoblasts – cell-based, Clone20 osteoblasts, firefly luciferase, cherry-picked, dose response (AID 624132); assay type: functional;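 further: firefly luciferase luminescence from reporter carrying the Shn3 3'UTR in osteoblasts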
# [9] = viability loss in HEK293 cells – cell-based, plate reader, cherry-picked samples, cytotoxicity control, dose response (AID 743446); assay type: functional
# [10] = blockade of melanocortin 4 receptor signaling – cell-based, plate reader, cherry pick, counter-screen for LGR2 antagonist project, dose response (AID 743444); assay type: functional;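 further: transfected HEK 293 cells stimulated with alpha-MSH peptide; potency of inhibitors of the alpha-MSH evoked signal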
# Paired box protein Pax-8 = Paired box protein Pax-8 (Homo sapiens, UniProt Q06710); assay: PAX8 transcriptional activity inhibition in RMG-I – RMG-I cells, luciferase, cherry-pick, dose response (AID 687027); assay type: functional, cell-based;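 further: luciferase reporter driven by Pax8 target thyroperoxidase promoter measured by SteadyGlo luminescence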
# Chain of Paired box protein Pax-8 (Q06710 whole entry): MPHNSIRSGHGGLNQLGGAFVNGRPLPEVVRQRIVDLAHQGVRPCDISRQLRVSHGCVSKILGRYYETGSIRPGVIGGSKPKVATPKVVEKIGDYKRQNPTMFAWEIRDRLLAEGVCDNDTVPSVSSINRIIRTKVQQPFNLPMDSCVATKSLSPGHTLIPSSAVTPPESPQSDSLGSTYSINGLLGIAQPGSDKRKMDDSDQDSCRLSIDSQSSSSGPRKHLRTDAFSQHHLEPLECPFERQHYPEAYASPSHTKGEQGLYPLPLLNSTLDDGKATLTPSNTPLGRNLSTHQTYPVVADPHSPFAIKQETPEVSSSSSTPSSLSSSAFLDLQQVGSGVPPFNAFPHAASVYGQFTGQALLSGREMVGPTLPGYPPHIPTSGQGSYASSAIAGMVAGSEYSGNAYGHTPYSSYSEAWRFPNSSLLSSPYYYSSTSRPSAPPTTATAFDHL
# [11] = blockers of bursicon-stimulated LGR2 cAMP reporter – cell-based, HEK293, CRE-luciferase reporter, cherry pick, set 2, dose response (AID 743343); assay type: functional;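 further: transfected cells were stimulated with diluted bursicon conditioned medium after compound addition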
# [12] = non-specific 3'UTR reporter inhibition in Clone20-Shn3RL – cell-based, Renilla luciferase, cherry-picked, counter-screen for Shn3 inhibitor project, dose response (AID 624133); assay type: functional
# [13] = toxicity toward immortalized ovarian surface epithelium – cell-based, plate reader, dry powder samples, cytotoxicity control for PAX8 inhibitor project, dose response (AID 743045); assay type: functional
# [14] = general cell-killing toxicity readout – plate reader, dry powder samples, cytotoxicity control for PAX8 inhibitor project, dose response (AID 743021); assay type: functional, cell-based
# [15] = A2780 cell killing – plate reader, dry powder samples, cytotoxicity control, dose response (AID 743046); assay type: functional, cell-based
# [16] = OVCAR-3 cell viability loss – plate reader, dry powder samples, PAX8 inhibitor project, dose response (AID 743044); assay type: functional, cell-based
# [17] = OVCAR8 cell viability loss – plate reader, dry powder samples, PAX8 project, dose response (AID 743197); assay type: functional, cell-based; conditions: OVCAR-8
# [18] = IGROV1 cell killing – plate reader, dry powder samples, PAX8 inhibitor project, dose response (AID 743043); assay type: functional, cell-based; conditions: IGROV-1
# [19] = CTGF mRNA reduction in DLD1 cells – cell-based, DLD1 colon cancer, RT-qPCR, cherry-pick, dose response (AID 1053122); assay type: functional; conditions: Cancer cell lines
# [20] = target: COUP transcription factor 2 (Homo sapiens, UniProt P24468); assay: Luminescence-based cell-based high throughput dose response assay to identify inhibitors of COUP-TFII (NR2F2).; assay type: functional;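 further: HEK293 cells transiently cotransfected with COUP-TFII expression vector and reporter; luciferase reporter luminescence driven by COUP-TFII from the pX2-168 reporter plasmid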
# Chain of COUP transcription factor 2 (P24468 whole entry): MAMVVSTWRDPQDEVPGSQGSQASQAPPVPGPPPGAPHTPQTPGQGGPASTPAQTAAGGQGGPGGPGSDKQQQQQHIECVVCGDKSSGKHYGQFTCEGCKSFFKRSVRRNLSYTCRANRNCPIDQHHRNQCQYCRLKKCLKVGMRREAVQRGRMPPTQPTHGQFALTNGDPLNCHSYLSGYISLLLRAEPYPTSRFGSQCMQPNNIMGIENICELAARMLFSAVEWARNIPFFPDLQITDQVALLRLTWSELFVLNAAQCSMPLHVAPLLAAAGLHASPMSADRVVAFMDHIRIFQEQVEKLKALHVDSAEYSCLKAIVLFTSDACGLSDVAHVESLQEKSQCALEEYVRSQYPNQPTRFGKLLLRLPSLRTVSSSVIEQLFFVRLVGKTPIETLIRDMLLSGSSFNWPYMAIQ
# [21] = HEK-293T cell viability reduction – luminescence, B-cell screen hits, cytotoxicity control for BCR NF-kB inhibitor project, dose response (AID 489021); assay type: functional, cell-based;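 further: HEK-293T cells carrying an NF-kB luciferase reporter; cells exposed to compound for about 14 hours before viability readout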
# [22] = fluconazole-exposed Candida albicans growth modulators – fluorescence, retest, confirmation (AID 2467); assay type: functional, cell-based
# [23] = NIH-3T3 fibroblast cytotoxicity, dose response, cytotoxicity control, cell-based, fluorescence, Alamar Blue, secondary assay (AID 2327); assay type: functional;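 further: NIH-3T3 mouse fibroblasts cultured with fluconazole at 8 µg/mL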
# INS1 = assay: INS-1E survival protection against cytokine death – cell-based, luminescence, retest, dose response (AID 449756); assay type: functional;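 further: cell death triggered by IL-1 beta plus TNF-alpha plus IFN-gamma mixture; protective hits raise ATP signal compared with cytokine alone wells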
# Cytochrome P450 2D6 = Cytochrome P450 2D6 (Homo sapiens, UniProt P10635);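 further: CYP2D6 member of a cytochrome P450 panel assay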
# Chain of Cytochrome P450 2D6 (P10635 whole entry): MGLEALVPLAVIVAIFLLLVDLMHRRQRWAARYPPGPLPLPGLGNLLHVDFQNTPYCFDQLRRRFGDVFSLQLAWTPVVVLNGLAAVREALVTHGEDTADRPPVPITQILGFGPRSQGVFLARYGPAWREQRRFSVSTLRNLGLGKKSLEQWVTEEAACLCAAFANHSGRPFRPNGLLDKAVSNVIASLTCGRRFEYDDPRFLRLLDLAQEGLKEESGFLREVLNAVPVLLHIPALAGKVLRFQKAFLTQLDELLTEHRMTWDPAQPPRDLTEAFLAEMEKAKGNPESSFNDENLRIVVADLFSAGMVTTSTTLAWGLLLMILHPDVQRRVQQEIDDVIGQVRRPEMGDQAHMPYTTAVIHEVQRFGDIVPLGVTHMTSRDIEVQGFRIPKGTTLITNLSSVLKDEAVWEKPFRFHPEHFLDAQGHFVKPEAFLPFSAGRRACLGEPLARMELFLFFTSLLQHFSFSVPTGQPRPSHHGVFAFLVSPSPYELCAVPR
# [24] = Potency on glucagon-like peptide 1 release, dose-response in NCI-H716 cell line, half maximal inhibitory concentration (AID 1117344); assay type: functional, cell-based
# Cytochrome P450 1A2 = target: T2, Cytochrome P450 1A2 (Homo sapiens, UniProt P05177);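 further: PubChem cytochrome P450 panel assay, CYP1A2 panel member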
# T2 sequence (P05177 whole entry): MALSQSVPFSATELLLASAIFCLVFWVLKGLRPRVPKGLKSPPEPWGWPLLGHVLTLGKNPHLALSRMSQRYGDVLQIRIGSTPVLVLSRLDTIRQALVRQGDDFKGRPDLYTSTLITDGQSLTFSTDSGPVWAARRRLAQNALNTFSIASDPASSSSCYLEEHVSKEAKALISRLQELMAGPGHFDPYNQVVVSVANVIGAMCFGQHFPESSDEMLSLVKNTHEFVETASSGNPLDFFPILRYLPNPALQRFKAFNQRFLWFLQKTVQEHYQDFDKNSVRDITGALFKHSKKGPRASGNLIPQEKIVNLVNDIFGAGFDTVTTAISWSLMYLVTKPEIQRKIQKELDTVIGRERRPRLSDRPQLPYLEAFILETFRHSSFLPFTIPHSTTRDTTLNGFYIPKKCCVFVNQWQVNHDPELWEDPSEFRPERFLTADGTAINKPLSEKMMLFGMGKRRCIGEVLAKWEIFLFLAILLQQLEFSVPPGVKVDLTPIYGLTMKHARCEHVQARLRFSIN
# [25] = glucagon-like peptide-1 release potency in STC-1, concentration-response, half-maximal inhibitory concentration in the STC-1 line (AID 1117345); assay type: functional, cell-based
structure (smiles),measurement,setting,value
COC(=O)c1cc(NC(=O)c2ccc(-c3ccccc3)cc2)ccc1Cl,IC50,[1],> 109 µM (inactive)
same,IC50,[2],> 83.3 µM (inactive)
C=CCn1cc(C(=O)NCc2ccc3c(c2)OCO3)c(=O)c2cc(S(=O)(=O)N(CC)CC)ccc21,IC50,Prothrombin,19.2 µM (active)
Cc1ccc(S(=O)(=O)N2CCCCC2)cc1NC(=O)Cn1ncc(Cl)c(Cl)c1=O,AC50,[3],23.5 µM (active)
same,AC50,[4],2.6 µM (active)
same,AC50,[5],10.4 µM (active)
same,AC50,[6],6.21 µM (active)
same,AC50,A-375,23.7 µM (active)
same,AC50,[7],9.07 µM (active)
same,AC50,[8],4.32 µM (active)
same,AC50,[9],7.53 µM (active)
same,AC50,[10],17.5 µM (active)
same,AC50,Paired box protein Pax-8,4.3 µM (active)
same,AC50,[11],17.9 µM (active)
same,AC50,[12],8.36 µM (active)
C[C@H](CO)N1C[C@H](C)[C@@H](CN(C)C(=O)Nc2ccc3c(c2)OCO3)Oc2cc(C#Cc3ccncc3)ccc2S1(=O)=O,AC50,[13],5.8 µM (active)
same,AC50,[14],47.5 µM (active)
same,AC50,[15],10.9 µM (active)
same,AC50,[16],5.21 µM (active)
same,AC50,[17],8.81 µM (active)
same,AC50,Paired box protein Pax-8,3.02 µM (active)
same,AC50,[18],13.7 µM (active)
COc1ccc(NC(=O)N2CCCCN3[C@@H](CO)[C@H](c4ccc(-c5ccccc5F)cc4)[C@@H]3C2)cc1,AC50,[19],2.72 µM (active)
Cc1ccc(-c2c[n+](-c3ccccc3)c3n2CCCS3)cc1,IC50,[20],17.4 µM (inactive)
same,IC50,[21],> 80 µM (inactive)
same,EC50,[22],0.709 µM (active)
same,EC50,[23],50.9 µM (active)
same,AC50,"INS1; Rattus norvegicus, INS1",2.26 µM (active)
same,AC50,INS1; ins1,1.92 µM (active)
O=C(O)Cc1ccccc1C(=O)O [2-CARBOXYBENZENEACETIC ACID],IC50,Prothrombin,> 50 µM (not active)
Cc1c(NC(C)C)c(=O)n(-c2ccccc2)n1C [RAMIFENAZONE],AC50,Cytochrome P450 2D6,12.6 µM (inconclusive)
same,IC50,[24],> 40 µM (inactive)
same,AC50,Cytochrome P450 1A2,0.0398 µM (inconclusive)
same,IC50,[25],> 40 µM (inactive)
